Legend:
H1299 cells [1] = experiment: Wound-healing migration and transwell invasion after EFHD2 knockdown; format: cell-based, human; settings: EFHD2 knockdown in H1299 cells
Procedure: FIG. 1. EFHD2 increases the metastatic abilities of lung adenocarcinoma cells. The effects of EFHD2 overexpression in A549 cells and EFHD2-knockdown in H1299 cells on metastatic abilities were determined. (A) Migration ability was analyzed by wound-healing assay. (B) Invasive ability was analyzed by transwell invasion assay. (C) Invadopodia were visualized by colocalized of cortactin (green) and F-actin (red). (D) Quantification of cancer cells with invadopodia. N=100 cells/sample. **, P<0.01.
Wound healing assay. The in vitro migration assay was performed using a Culture-Insert well (ibidi GmbH, German/v). Cancer cells (4.5×10^4 cells) were cultured in suitable media in the device for 24 hr. After removal of the Culture-Insert, cancer cells were cultured for an additional 8 hr. The migration distance of cancer cells was recorded, and the migration area was measured using ImageJ software.
Matrigel invasion assay. For in vitro invasion assay, cancer cells (1.5×10^5 cells in 200 μL) were suspended in the upper half of a PET membrane transwell insert chamber (BD Biosciences), which was coated with Matrigel (1 mg/mL; BD Biosciences), on a 24-well plate. […]

H1299 cells [2] = experiment: MTT cell growth after EFHD2 knockdown; format: cell-based, human; settings: EFHD2 knockdown in H1299 cells
Procedure: MTT assay. […] The absorbance of the solution at 570 nm was measured by spectrophotometer.
To determine whether EFHD2 contributes to the metastatic abilities of lung adenocarcinoma cells, the pcDNA vector was used to overexpress EFHD2 in A549 cells and shRNA (i.e., shEFHD2) to knockdown EFHD2 in H1299 cells.

shEFHD2: short hairpin RNA directing cleavage of EFHD2 gene RNA; SEQ ID NO: 4, encoded by SEQ ID NO: 1 (GGCCCUCUUCUACAAGUUCGUCAUAGAGCUCUAUGACGAACUUGUAGAAGAGAAAAAAC; expressed or natural sequence)
invasiveness (H1299 cells [1]; transwell invasion assay): opposite effects
migration (H1299 cells [1]; wound-healing assay): opposite effects
cell growth (H1299 cells [2]): did not obviously affect cell growth

Source: patent US20220000817A1, “PROGNOSIS AND TREATMENT OF METASTATIC CANCER” (Academia Sinica, priority 2018, published 2022)
